Counter-ions that a name gives are not always drawn.
Assays:
HFD-fed mouse = experiment: Test on elevation of protein concentration in feces using HFD-fed mouse; format: in vivo; conditions: 10 mg/kg oral, whole feces at day 1 of administration, mean ± SD
Method: A 0.5% methylcellulose suspension (test compound administered group, 5 mice per group) containing each test compound (10 mg/kg) or a 0.5% methylcellulose suspension (test compound non-administered group (vehicle), 5 mice per group) was orally administered to each high fat diet-fed (HFD-fed) mouse (D12079B diet, male, 15 weeks old), and the whole feces were recovered at day 1 of administration. The dry feces were dissolved in a 0.5 N aqueous sodium hydroxide solution. After centrifugation at 12,000 rpm, a protein concentration was quantified (Lowry method) using the supernatant to calculate a protein concentration (mg/g feces) in 1 g of feces. The mean and standard deviation of each group are shown below.

[1] = target: T1, Human recombinant enteropeptidase (Homo sapiens, UniProt P98073); experiment: Human enteropeptidase inhibitory activity; format: biochemical; conditions: 3.3 uM test compound, fluorescence intensity 2 hours after start of reaction; for inhibition at 3.3 µM: read-out: Inhibition rate at 3.3 uM (%)
T1 construct: purchased ITSI-Biosciences, LLC #REN-260
Method: Human recombinant enteropeptidase (#REN-260, ITSI-Biosciences, LLC) was diluted with an assay buffer (50 mM Tricine (pH 8.0), 0.01 (w/v) % Tween 20, 10 mM CaCl2) to prepare a 24 mU/mL enzyme solution. Subsequently, 5FAM-Abu-Gly-Asp-Asp-Asp-Lys-Ile-Val-Gly-Gly-Lys(CPQ2)-Lys-Lys-NH2 (purity: 97.2%, CPC Scientific, Inc.) produced according to a synthesis method known per se was diluted with an assay buffer to prepare a 2.1 uM (“u” represents “micro”) substrate solution. Each test compound was dissolved in DMSO to prepare a 1 mM solution, which was then diluted 100-fold with an assay buffer to prepare a compound solution. The compound solution (5 uL/well) and the substrate solution (5 uL/well) were added to a 384-well black plate (#784076, Greiner Bio-One) and mixed. Then, the enzyme solution (5 uL/well) was added to the plate and mixed to start reaction. The fluorescence intensity was measured at an excitation wavelength of 485 nm and a fluorescence wavelength of 535 nm using a fluorescence plate reader EnVision (PerkinElmer Inc.). Also, the same reaction as above was performed except that the test compound was not added (test compound non-supplemented group). In addition, the same reaction as above was performed except that neither the test compound nor the enzyme was added (control group). The inhibition rate was calculated from the fluorescence intensity 2 hours after the start of the reaction according to the following equation: Inhibition rate (%)=(1−(Fluorescence intensity of the test compound supplemented group−Fluorescence intensity of the control group)/(Fluorescence intensity of the test compound non-supplemented group−Fluorescence intensity of the control group))×100

DIO mouse = experiment: Test on antiobesity action using DIO mouse; format: in vivo; conditions: mean ± SD; for Body weight (g) At start of administration: baseline
Method: A 0.5% methylcellulose suspension (test compound administered group, 5 or 6 mice per group) containing each test compound (20 or 60 mg/kg) or a 0.5% methylcellulose suspension (test compound non-administered group (vehicle), 6 mice per group) was orally administered to each diet-induced obesity (DIO) mouse (D12079B diet, male, 46 weeks old) once a day for 4 weeks. The means of body weights and standard deviations at the start of administration and after 4-week continuous administration are shown below.

T1 sequence (P98073 whole entry): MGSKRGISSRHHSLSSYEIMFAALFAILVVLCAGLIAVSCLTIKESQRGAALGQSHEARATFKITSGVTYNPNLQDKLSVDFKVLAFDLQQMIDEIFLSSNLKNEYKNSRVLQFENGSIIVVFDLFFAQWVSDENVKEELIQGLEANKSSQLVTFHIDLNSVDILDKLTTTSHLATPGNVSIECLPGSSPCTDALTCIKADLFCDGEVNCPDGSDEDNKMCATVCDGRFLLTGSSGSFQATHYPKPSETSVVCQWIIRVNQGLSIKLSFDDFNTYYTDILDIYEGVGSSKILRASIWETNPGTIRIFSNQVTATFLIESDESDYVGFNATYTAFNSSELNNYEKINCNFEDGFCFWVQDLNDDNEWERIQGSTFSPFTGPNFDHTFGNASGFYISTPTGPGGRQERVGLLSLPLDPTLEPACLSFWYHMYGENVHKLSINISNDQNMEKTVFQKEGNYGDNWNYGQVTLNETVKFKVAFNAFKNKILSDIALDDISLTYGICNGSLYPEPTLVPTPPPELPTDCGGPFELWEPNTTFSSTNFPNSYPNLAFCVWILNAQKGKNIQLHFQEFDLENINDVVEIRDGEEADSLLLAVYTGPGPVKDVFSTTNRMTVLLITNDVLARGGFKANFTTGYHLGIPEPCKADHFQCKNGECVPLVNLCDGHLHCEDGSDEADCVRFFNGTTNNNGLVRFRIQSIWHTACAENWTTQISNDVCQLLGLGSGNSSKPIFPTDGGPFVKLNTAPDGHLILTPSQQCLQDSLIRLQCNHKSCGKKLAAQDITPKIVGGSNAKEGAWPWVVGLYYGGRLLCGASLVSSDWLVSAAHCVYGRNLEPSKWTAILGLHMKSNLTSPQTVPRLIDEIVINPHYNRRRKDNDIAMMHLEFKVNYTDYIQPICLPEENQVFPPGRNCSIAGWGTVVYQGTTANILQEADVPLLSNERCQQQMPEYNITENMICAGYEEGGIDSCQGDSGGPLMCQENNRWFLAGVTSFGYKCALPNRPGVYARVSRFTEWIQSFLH

inhibition at 3.3 µM [1] | SMILES | other results
101% | N=C(N)Nc1ccc(C(=O)Oc2cccc(C3=NO[C@@](CC(=O)O)(C(=O)O)C3)c2)cc1 [Example 5, (5S)-3-(3-((4-Carbamimidamidobenzoyl)oxy)phenyl)-5-(carboxymethyl)-4,5-dihydro-1,2-oxazole-5-carboxylic acid] | Protein concentration in feces (HFD-fed mouse): 144.5 ± 26.6 mg/g
101% | N=C(N)Nc1ccc(C(=O)Oc2cccc(C3=NO[C@](CC(=O)O)(C(=O)O)C3)c2)cc1 [Example 1, (5R)-3-(3-((4-Carbamimidamidobenzoyl)oxy)phenyl)-5-(carboxymethyl)-4,5-dihydro-1,2-oxazole-5-carboxylic acid] | Body weight (g) After 4-week continuous administration (DIO mouse; 20 mg/kg oral once a day for 4 weeks): 43.1 ± 3.5 g; Body weight (g) At start of administration (DIO mouse; 20 mg/kg oral once a day): 48.9 ± 2.0 g; Body weight (g) After 4-week continuous administration (DIO mouse; 60 mg/kg oral once a day for 4 weeks): 40.2 ± 2.1 g; Body weight (g) At start of administration (DIO mouse; 60 mg/kg oral once a day): 48.9 ± 2.5 g; Protein concentration in feces (HFD-fed mouse): 151.5 ± 22.8 mg/g
100% | N=C(N)Nc1ccc(C(=O)Oc2ccc(C3CCN(C(=O)CCC(=O)N[C@@H](CC(=O)O)C(=O)O)CC3)c(C3=NOC(CC(=O)O)(CC(=O)O)C3)c2)cc1 [Example 21, N-(4-(4-(2-(5,5-bis(carboxymethyl)-4,5-dihydro-1,2-oxazol-3-yl)-4-((4-carbamimidamidobenzoyl)oxy)phenyl)piperidin-1-yl)-4-oxobutanoyl)-L-aspartic acid] | –
101% | N=C(N)Nc1ccc(C(=O)Oc2ccc(-c3ccccc3)c(C3=NOC(CC(=O)O)(C(=O)O)C3)c2)cc1 (stereo not drawn) [Example 9, 3-(4-((4-carbamimidamidobenzoyl)oxy)biphenyl-2-yl)-5-(carboxymethyl)-4,5-dihydro-1,2-oxazole-5-carboxylic acid] | –
101% | N=C(N)Nc1ccc(C(=O)Oc2ccc(C3CCN(C(=O)CCC(=O)O)CC3)c(C3=NOC(CC(=O)O)(CC(=O)O)C3)c2)cc1 [Example 7, 4-(4-(2-(5,5-Bis(carboxymethyl)-4,5-dihydro-1,2-oxazol-3-yl)-4-((4-carbamimidamidobenzoyl)oxy)phenyl)piperidin-1-yl)-4-oxobutanoic acid trifluoroacetate] | –
100% | N=C(N)Nc1ccc(C(=O)Oc2ccc(CCC(=O)NCCC(=O)O)c(C3=NOC(CC(=O)O)(CC(=O)O)C3)c2)cc1 [Example 32, N-(3-(2-(5,5-bis(carboxymethyl)-4,5-dihydro-1,2-oxazol-3-yl)-4-((4-carbamimidamidobenzoyl)oxy)phenyl)propanoyl)-beta-alanine] | –
101% | N=C(N)Nc1ccc(C(=O)Oc2ccc(C3CCCCC3)c(C3=NOC(CC(=O)O)(C(=O)O)C3)c2)cc1 (stereo not drawn) [Example 8, 3-(5-((4-Carbamimidamidobenzoyl)oxy)-2-cyclohexylphenyl)-5-(carboxymethyl)-4,5-dihydro-1,2-oxazole-5-carboxylic acid trifluoroacetate] | –
101% | Cc1ccc(OC(=O)c2ccc(NC(=N)N)cc2)cc1C1=NOC(CC(=O)O)(C(=O)O)C1 (stereo not drawn) [Example 3, 3-(5-((4-Carbamimidamidobenzoyl)oxy)-2-methylphenyl)-5-(carboxymethyl)-4,5-dihydro-1,2-oxazole-5-carboxylic acid trifluoroacetate] | –
– | CC(C)(C)C1CCC(c2cc(OC(=O)c3ccc(NC(=N)N)cc3)cc(C3=NOC(CC(=O)O)(C(=O)O)C3)c2)CC1 (stereo not drawn) [Example 13, 3-(3-(4-tert-butylcyclohexyl)-5-((4-carbamimidamidobenzoyl)oxy)phenyl)-5-(carboxymethyl)-4,5-dihydro-1,2-oxazole-5-carboxylic acid (cis or trans form)] | Inhibition rate at 3.3 uM (%) ([1]; 3.3 µM): 100%

— patent US10023544B2, “Heterocyclic compound” (Takeda Pharmaceutical Company Limited, priority 2014, dated 2018)
